Laboratory results as given in paper PMC11189555, “Aryl amino acetamides prevent Plasmodium falciparum ring development via targeting the lipid-transfer protein PfSTART1” (Nature Communications, 2024).
Several values for one entry are separate records, joined by “and”; a condition that tells them apart may be missing. Equal values may be shown once. Read-outs that look alike come from different tables or passages of the source.

System: SLI-WT parasites
Experiment: Growth inhibition assay (72 h, LDH activity)
Type: cell-based, Plasmodium falciparum
Conditions: for Growth inhibition, (1 - av / DMSO) x 100: Fig 2B source data, per biological replicate; for sample/DMSO: START(WT); for EC50: Plasmodium falciparum; for percent growth inhibition relative to DMSO control: START(WT) (SLI-WT)
Method: Parasite growth assays with inhibitory compounds were performed as per[11] and are fully described in the Supplementary Information.
Molecular biology and transfection of P. falciparum: Selection Linked Integration […]
To introduce the PfSTART1 mutations, the second half of the coding sequence of pfstart1 (PF3D7_0104200), was recodonised without introns to the bias of Saccharomyces cerevisiae containing either WT, N309K or N330K mutations, and synthesised as gBlock fragments (Integrated DNA Technologies). The first 819 bp of the 5′ native sequence of pfstart1 was amplified from gDNA, to form the 5’ homology block (5’ HB). The 3′ recodonised gBlock fragment comprising of the last 552 bp of either the WT, N309K or N330K pfstart1 to form the ‘recodon’ block (primers listed in Table S2). The 5’ HB and recodon products were sewn together by overlapping PCR to reconstitute the full coding sequence of pfstart1. These blocks (WT/N309K/N330K) were digested with BglII/PstI, and inserted into the parasite vector p-HA-2A-Neo-glmS
1. This plasmid contains an in -frame haemagglutinin (HA) epitope for protein identification and a P2A peptide (2A) to skip continuous peptide bond synthesis of a downstream neomycin resistance gene ( NeoR).
Parasites containing the transfected DNA were selected using 2.5 nM WR99210 (Jacobus). To select for parasites in which single crossover integration had occurred into the pfstart1 locus, parasites were treated with 400 μg/mL G418 (geniticin, Sigma Aldrich) for 14 days: only parasites that have integrated the construct into their genome expressed the neomycin resistance gene together with the PfSTART1 protein.
Parasite lines were cloned using limiting dilution. These clones were then tested on Western Blot (for correct HA-tagging and protein size), and correct integration and sequence were tested by PCR analysis: PCR on the gDNA was conducted using the primers START_5’UTR.F and START_Seq.R (Table S2). […]
Growth inhibition assays. Synchronised ring-stage parasites (0.3-0.6% parasitemia, 2% haematocrit) were grown for 72 h in a serial-dilution of the compound under […]
and compound 4. Note that M-833 was first purchased from MolPort (MolPort -002-267-916) then made in-house at WEHI: the differences observed in EC50s across experiments are attributed to the different batches of M -833. For some experiments, 0, 0.25 or 2.5 mM of glucosamine (GlcN) was also added. Experiments were set up in technical duplicates or triplicates. Following a freeze -thaw cycle, lactate dehydrogenase (LDH) activity was assessed as an indicator of parasite growt h 5. 30 μL of parasite culture was incubated for 30 min in the dark with 75 μL Malstat mixture (0.1 M Tris pH 9.0, 20 g/L lactic acid, pH 7.5, 0.2% Triton-X100, 0.5 g/L acetylpyridine adenine dinucleotide (APAD, Sigma), 200 μg/mL nitroblue tetrazolium (NBT; Sigma), 1 μg/mL phenozine ethosulfate (PES; Sigma)). Absorbance was then measured at 650 nm, transformed using the formula below, plotted against the logarithm of the concentrations, and a non-linear regression (log(inhibitor) vs. response, variable slope) was calculated using GraphPad Prism to assess the half-inhibitory […]
Growth inhibition % = (1 − average(sample)− average(uRBC)) ∗ 100 […]
The DMSO samples were also used to assess growth of parasite in the presence of 0.25 and 2.5 mM GlcN (normalised by DMSO in 0 mM GlcN).
Egress, invasion & recovery assay. To measure egress, invasion and follow up recovery in the presence of different compounds, we adapted the method developed in6, using Hyp1-Nluc parasites7. These parasites episomally express the exported PEXEL protein Hyp1 (PF3D7_0113300) tagged with a NanoLuc luciferase (NLuc) and were selected with 2.5 nM WR99210 (Jacobus). Highly synchronised schizonts were obtained using ML10 (LifeArc) and sorbitol synchronisation, and Percoll-purified (the culture was gently layered over 67% Percoll (Cytiva) in RPMI, and centrifuged for 15 min at 1500 g and the schizont layer was collected and washed). […]

## Cc1cc(Cl)c(S(=O)(=O)N2CCCC2)cc1OCC(=O)NC1CCCCC1 [M-833]
SLI-WT, M-833 conc 0.00152416 (unit not given)
  Growth inhibition, (1 - av / DMSO) x 100: 17.8235% and 9.909% and 33.7545%
SLI-WT, M-833 conc 0.00457247 (unit not given)
  Growth inhibition, (1 - av / DMSO) x 100: 32.5193% and 13.2196% and 48.23%
SLI-WT, M-833 conc 0.0137174 (unit not given)
  Growth inhibition, (1 - av / DMSO) x 100: 64.9814% and 33.9327% and 65.9574%
SLI-WT, M-833 conc 0.0411523 (unit not given)
  Growth inhibition, (1 - av / DMSO) x 100: 82.6478% and 70.7748% and 84.2144%
SLI-WT, M-833 conc 0.123457 (unit not given)
  Growth inhibition, (1 - av / DMSO) x 100: 87.5893% and 87.6138% and 93.5055%
SLI-WT, M-833 conc 0.37037 (unit not given)
  Growth inhibition, (1 - av / DMSO) x 100: 88.1748% and 91.0017% and 95.8283%
SLI-WT, M-833 conc 1.11111 (unit not given)
  Growth inhibition, (1 - av / DMSO) x 100: 89.8172% and 92.0512% and 95.1872%
SLI-WT, M-833 conc 3.33333 (unit not given)
  Growth inhibition, (1 - av / DMSO) x 100: 91.3453% and 92.3754% and 94.862%
SLI-WT, M-833 conc 10 (unit not given)
  Growth inhibition, (1 - av / DMSO) x 100: 91.9594% and 91.8274% and 95.2708%
M-833 0.000508053 uM, 0 mM GlcN, biological replicates 1-3
  sample/DMSO: 27.927 and 21.9727 and 25
M-833 0.000508053 uM, 0.25 mM GlcN, biological replicates 1-3
  sample/DMSO: 42.2036 and 30.1606 and 32.1527
M-833 0.000508053 uM, 2.5 mM GlcN, biological replicates 1-3
  sample/DMSO: 50.9566 and 35.9886 and 36.6839
M-833 0.00152416 uM, 0 mM GlcN, biological replicates 1-4
  sample/DMSO: 49.0407 and 28.0532 and 35.8147 and 28.6219
M-833 0.00152416 uM, 0.25 mM GlcN, biological replicates 1-4
  sample/DMSO: 60.3487 and 47.5652 and 43.8309
M-833 0.00152416 uM, 2.5 mM GlcN, biological replicates 1-4
  sample/DMSO: 64.731 and 51.7963 and 44.8107 and 40.64
M-833 0.00457247 uM, 0 mM GlcN, biological replicates 1-4
  sample/DMSO: 71.0997 and 42.5489 and 51.2149 and 44.2813
M-833 0.00457247 uM, 0.25 mM GlcN, biological replicates 1-4
  sample/DMSO: 74.8396 and 65.6157 and 57.2049
M-833 0.00457247 uM, 2.5 mM GlcN, biological replicates 1-4
  sample/DMSO: 78.1904 and 72.0515 and 57.0638 and 53.24
M-833 0.0137174 uM, 0 mM GlcN, biological replicates 1-4
  sample/DMSO: 83.6593 and 61.2338 and 74.7499 and 69.6413
M-833 0.0137174 uM, 0.25 mM GlcN, biological replicates 1-4
  sample/DMSO: 88.8842 and 81.3121 and 70.4954
M-833 0.0137174 uM, 2.5 mM GlcN, biological replicates 1-4
  sample/DMSO: 87.5985 and 84.0064 and 69.7195 and 63.44
M-833 0.0411523 uM, 0 mM GlcN, biological replicates 1-4
  sample/DMSO: 94.394 and 79.7192 and 91.2101 and 80.3728
M-833 0.0411523 uM, 0.25 mM GlcN, biological replicates 1-4
  sample/DMSO: 94.2399 and 92.19 and 82.349
M-833 0.0411523 uM, 2.5 mM GlcN, biological replicates 1-4
  sample/DMSO: 91.9649 and 89.5193 and 74.7012 and 67.08
M-833 0.123457 uM, 0 mM GlcN, biological replicates 1-4
  sample/DMSO: 97.6883 and 88.7403 and 94.7713 and 86.5433
M-833 0.123457 uM, 0.25 mM GlcN, biological replicates 1-4
  sample/DMSO: 95.7043 and 95.071 and 88.6476
M-833 0.123457 uM, 2.5 mM GlcN, biological replicates 1-4
  sample/DMSO: 92.7752 and 92.3191 and 78.8024 and 71.4
72 h, Fig 2B, SLI-WT, 72 h, n = 3, unit only in x-axis title, read-out: EC50 (95% confidence interval)
  EC50: 13.4 nM
Fig 3C, SLI-WT, 0 mM GlcN, n = 4, unit on plot axis, read-out: EC50 M-833 (95% confidence interval)
  EC50: 5.9 nM
Fig 3C, SLI-WT, 0.25 mM GlcN, n = 4, unit on plot axis, read-out: EC50 M-833 (95% confidence interval)
  EC50: 3.1 nM
Fig 3C, SLI-WT, 2.5 mM GlcN, n = 4, unit on plot axis, read-out: EC50 M-833 (95% confidence interval)
  EC50: 2.6 nM
SLI-WT, Fig 2B
  fold more sensitive compared to the parental 3D7 parasites: 7 fold
SLI-WT, PfSTART1 knock-down
  fold reduction of EC50 on addition of 2.5 mM GlcN: 2.3 fold
0 mM GlcN, M-833 0.37037 uM, biological replicates 1-4
  percent growth inhibition relative to DMSO control: 99.0454 and 90.3879 and 95.7242 and 88.5343
0 mM GlcN, M-833 1.11111 uM, biological replicates 1-4
  percent growth inhibition relative to DMSO control: 99.2981 and 91.8212 and 96.4269 and 89.5933
0 mM GlcN, M-833 3.33333 uM, biological replicates 1-4
  percent growth inhibition relative to DMSO control: 98.5962 and 92.1167 and 96.403 and 89.8334
0 mM GlcN, M-833 10 uM, biological replicates 1-4
  percent growth inhibition relative to DMSO control: 99.0547 and 92.0133 and 96.7127 and 88.7461
0.25 mM GlcN, M-833 0.37037 uM, biological replicates 1-4
  percent growth inhibition relative to DMSO control: 96.4435 and 95.9038 and 89.675
0.25 mM GlcN, M-833 1.11111 uM, biological replicates 1-4
  percent growth inhibition relative to DMSO control: 96.5272 and 97.1616 and 91.872
0.25 mM GlcN, M-833 3.33333 uM, biological replicates 1-4
  percent growth inhibition relative to DMSO control: 96.834 and 96.2182 and 91.3374
0.25 mM GlcN, M-833 10 uM, biological replicates 1-4
  percent growth inhibition relative to DMSO control: 97.0851 and 96.6856 and 92.1644
2.5 mM GlcN, M-833 0.37037 uM, biological replicates 1-4
  percent growth inhibition relative to DMSO control: 94.0131 and 93.8677 and 81.9097 and 71.68
2.5 mM GlcN, M-833 1.11111 uM, biological replicates 1-4
  percent growth inhibition relative to DMSO control: 94.8008 and 94.5862 and 84.2496 and 73.4
2.5 mM GlcN, M-833 3.33333 uM, biological replicates 1-4
  percent growth inhibition relative to DMSO control: 94.7333 and 94.0783 and 84.1867 and 73.32
2.5 mM GlcN, M-833 10 uM, biological replicates 1-4
  percent growth inhibition relative to DMSO control: 95.2735 and 94.4252 and 87.0927 and 74.36
